Legend:
[1] = test system: patients with dyspepsia associated with gastric ulcers, duodenal ulcers, reflux esophagitis and gastroesophageal reflux without esophagitis; conditions: clinical studies; cited from earlier work
[2] = test system: patients affected by sleeping disturbance; assay: Administration of esomeprazole to patients affected by sleeping disturbance; format: in vivo, human; conditions: especially with GERD, oral route
Text: This applies especially to patients with GERD.
While the effect on the symptoms of sleeping disturbance have been established in patients who have taken esomeprazole by the oral route, it is believed that the improved effect of esomeprazole is a systemic effect which is not dependent on what mode of administration that is used, and that accordingly the improved effect on sleeping and quality of life will be seen also with other routes of administration such as rectal or parenteral administration.
The invention is further exemplified by the following case studies. During oral treatment with esomeprazole for acid related diseases such as non-erosive and erosive induced upper gastrointestinal disorders, evidence has accumulated that esomeprazole may be beneficial for treatment of sleeping disturbance especially in patients with GERD and endoscopy negative GERD.

[3] = at neutral or acid pH; cited from earlier work

Row | SMILES | healing of gastroduodenal and esophageal lesions and dyspeptic symptom resolution versus H2 receptor antagonists [1] | effect on symptoms of sleeping disturbance [2] | storage stability [3]
1 | COc1ccc2[nH]c([S+]([O-])Cc3ncc(C)c(OC)c3C)nc2c1 (racemic) [omeprazole, 5-methoxy-2-[[(4-methoxy-3,5-dimethyl-2-pyridinyl)methyl]sulfinyl]-1H-benzimidazole] | superior to H2 receptor antagonists | – | –
2 | COc1ccc2nc([S@@+]([O-])Cc3ncc(C)c(OC)c3C)[nH]c2c1 [esomeprazole, S-5-methoxy-2-[[(4-methoxy-3,5-dimethyl-2-pyridinyl)methyl]sulfinyl]-1H-benzimidazole] | – | disappearance or great improvement of the symptoms | poor storage stability

Source: patent US20050182100A1, “Method of use” (priority 2002, published 2005)
